The term IC50 denotes the concentration needed to halve the response being measured.

Structures are written as SMILES. Read-outs that look alike come from different tables or passages of the source. Bounds are passed on as bounds.

The results in this text go back to patent US9856279B2 (AGIOS PHARMACEUTICALS, INC, priority 2011, dated 2018).

One experiment concerns the target IDH1 R132H (Homo sapiens, UniProt O75874, R132H). In words: Assay for IDH1 R132H inhibitors (NADPH/aKG, resazurin detection). In kind it is biochemical. The gist of the method: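 Read-out is resorufin fluorescence (Ex544/Em590) 5 min after adding a 30 μM resazurin detection mix. Before that, mutant enzyme (0.2 μg/ml in its mix) ran 50 min at room temperature with compound, 8 uM NADPH and 2 mM aKG (mix levels) in Tris pH 7.5 with NaCl, MgCl2, BSA.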
A general note: Resazurin is reduced to fluorescent resorufin, in cell work by metabolically active cells.

For a further experiment, the system named is HT1080 cells. In words: Cellular assay for IDH1m inhibitors: inhibition of 2-HG production (LC-MS, 48 hours) in HT1080 cells. Particulars: Homo sapiens, HT-1080; inhibition of 2-HG production, HT1080 cells; read-out: HT1080 IC50. In kind it is cell-based. As to the method:
Cells (e.g., HT1080 or U87MG) and are grown in T125 flasks in DMEM containing 10% FBS, 1× penicillin/streptomycin and 500 ug/mL G418. They are harvested by trypsin and seeded into 96 well white bottom plates at a density of 5000 cell/well in 100 ul/well in DMEM with 10% FBS. No cells are plates in columns 1 and 12. Cells are incubated overnight at 37° C. in 5% CO2. The next day compounds are made up at 2× concentration and 100 ul are added to each cell well. The final concentration of DMSO is 0.2% and the DMSO control wells are plated in row G. The plates are then placed in the incubator for 48 hours. At 48 hours, 100 μl of media is removed from each well and analyzed by LC-MS for 2-HG concentrations. The cell plate is placed back in the incubator for another 24 hours. At 72 hours post compound addition, 10 mL/plate of Promega Cell Titer Glo reagent is thawed and mixed. The cell plate is removed from the incubator and allowed to equilibrate to room temperature. Then 100 ul of reagent is added to each well of media. The cell plate is then placed on an orbital shaker for 10 minutes and then allowed to sit at room temperature for 20 minutes. The plate is then read for luminescence with an integration time of 500 ms.
The IC50 for inhibition of 2-HG production (concentration of test compound to reduce 2HG production by 50% compared to control) in these two cell lines for various compounds of formula I is set forth in Table 4 above.

Where [1] appears, read: enzyme assay of Example 12, read-out: IDH1R132H IC50.

IDH1 R132H, sequence (O75874 whole entry R132H): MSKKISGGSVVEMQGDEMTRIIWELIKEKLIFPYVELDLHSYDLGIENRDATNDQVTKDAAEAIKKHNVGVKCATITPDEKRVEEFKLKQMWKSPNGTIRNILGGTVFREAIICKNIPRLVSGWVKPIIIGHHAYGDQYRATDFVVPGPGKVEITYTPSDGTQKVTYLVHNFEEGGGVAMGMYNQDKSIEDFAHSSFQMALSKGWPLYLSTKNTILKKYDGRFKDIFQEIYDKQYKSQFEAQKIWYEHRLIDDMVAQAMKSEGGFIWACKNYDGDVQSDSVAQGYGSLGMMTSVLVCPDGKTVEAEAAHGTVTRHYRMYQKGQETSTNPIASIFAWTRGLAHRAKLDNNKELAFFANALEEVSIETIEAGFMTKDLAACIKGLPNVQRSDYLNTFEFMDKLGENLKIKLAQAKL

In the case of `C=CC(=O)N1CCC=C(c2cc(C#N)c(N3CCN(C(=O)C4CC4)[C@H](C)C3)nc2C2CC2)C1` [Compound 575, (R)-5-(1-acryloyl-1,2,5,6-tetrahydropyridin-3-yl)-2-(4-(cyclopropanecarbonyl)-3-methylpiperazin-1-yl)-6-cyclopropylnicotinonitrile], the half-inhibitory concentration (IC50) on IDH1 R132H (setting [1]) and in the experiment with HT1080 cells was < 500 nM in each case.

On to `N#Cc1cc(-c2cccc3c[n+]([O-])ccc23)c(C2CC2)nc1N1CCN(C(=O)C2CC2)[C@H](C2CC2)C1` [Compound 439, (R)-5-(5-cyano-6-(4-(cyclopropanecarbonyl)-3-cyclopropylpiperazin-1-yl)-2-cyclopropylpyridin-3-yl)isoquinoline 2-oxide], for which the IC50 on IDH1 R132H (setting [1]) and in the experiment on HT1080 cells was < 500 nM each time.

For `C=Cc1cc(-c2cc(C#N)c(N3CCN(C(=O)CCOC)[C@H](C4CC4)C3)nc2C2CC2)c2ccccc2n1` [Compound 574, (R)-6-cyclopropyl-2-(3-cyclopropyl-4-(3-methoxypropanoyl)piperazin-1-yl)-5-(2-vinylquinolin-4-yl)nicotinonitrile], the IC50 on IDH1 R132H (setting [1]) and in the experiment on HT1080 cells was < 500 nM throughout.

Turning to `Cc1cc2c(-c3cc(C#N)c(N4CCN(C(=O)CCO)[C@H](C)C4)nc3C3CC3)cccc2cn1` [Compound 588, (R)-6-cyclopropyl-2-(4-(3-hydroxypropanoyl)-3-methylpiperazin-1-yl)-5-(3-methylisoquinolin-5-yl)nicotinonitrile], the half-inhibitory concentration (IC50) at IDH1 R132H (setting [1]) and in the experiment with HT1080 cells was < 500 nM throughout.

For the compound `C=Cc1cc(Cc2cc(C#N)c(N3CCN(C(=O)C4CC4)[C@H](C4CC4)C3)nc2C2CC2)ccn1` [Compound 684, (R)-2-(4-(cyclopropanecarbonyl)-3-cyclopropylpiperazin-1-yl)-6-cyclopropyl-5-((2-vinylpyridin-4-yl)methyl)nicotinonitrile], the half-inhibitory concentration (IC50) at IDH1 R132H (setting [1]) and in the experiment on HT1080 cells was < 500 nM in each case.

For the compound `C=C(CO)c1cc(-c2cc(C#N)c(N3CCN(C(=O)CCOC)[C@H](C)C3)nc2C2CC2)ccn1` [Compound 653, (R)-2-cyclopropyl-2′-(3-hydroxyprop-1-en-2-yl)-6-(4-(3-methoxypropanoyl)-3-methylpiperazin-1-yl)-[3,4′-bipyridine]-5-carbonitrile], the IC50 at IDH1 R132H (setting [1]) and in the experiment on HT1080 cells was < 500 nM each time.

On to `C=Cc1cc(-c2cc(C#N)c(N3CCN(C(=O)CCOC)[C@H](C)C3)nc2C2CC2)cc(C=C)n1` [Compound 624, (R)-2-cyclopropyl-6-(4-(3-methoxypropanoyl)-3-methylpiperazin-1-yl)-2′,6′-divinyl-[3,4′-bipyridine]-5-carbonitrile], for which the 50% inhibitory concentration (IC50) on IDH1 R132H (setting [1]) and in the experiment on HT1080 cells was < 500 nM throughout.

For the compound `C=Cc1cnc2c(/C=C/c3cnc4c(-c5cc(C#N)c(N6CCN(C(=O)CCOC)[C@H](C)C6)nc5C5CC5)cccc4n3)cccc2n1` [Compound 604, (R,E)-6-cyclopropyl-2-(4-(3-methoxypropanoyl)-3-methylpiperazin-1-yl)-5-(2-(2-(2-vinylquinoxalin-5-yl)vinyl)quinoxalin-5-yl)nicotinonitrile], the 50% inhibitory concentration (IC50) at IDH1 R132H (setting [1]) and in the experiment on HT1080 cells was < 500 nM in each case.

As to `C=Cc1cc(-c2c(C3CC3)nc(N3CCN(C(=O)C[C@H]4CCO4)[C@H](C4CC4)C3)c(C#N)c2CC)ccn1` [Compound 823, 2-cyclopropyl-6-((R)-3-cyclopropyl-4-(2-((R)-oxetan-2-yl)acetyl)piperazin-1-yl)-4-ethyl-2′-vinyl-[3,4′-bipyridine]-5-carbonitrile], the IC50 at IDH1 R132H (setting [1]) and with HT1080 cells was < 500 nM throughout.

Regarding `COCCC(=O)N1CCN(c2nc(C3CC3)c(-c3ccc4nccnc4c3)cc2C#N)C[C@H]1C` [Compound 445, (R)-6-cyclopropyl-2-(4-(3-methoxypropanoyl)-3-methylpiperazin-1-yl)-5-(quinoxalin-6-yl)nicotinonitrile], the 50% inhibitory concentration (IC50) at IDH1 R132H (setting [1]) is < 500 nM; in the experiment with HT1080 cells, 1000 to 10000 nM.

As to `C=Cc1cc(-c2cc(C#N)c(N3CCN(C(=O)CCO)[C@H](C4CC4)C3)nc2C2CC2)c2ccccc2n1` [Compound 571, (R)-6-cyclopropyl-2-(3-cyclopropyl-4-(3-hydroxypropanoyl)piperazin-1-yl)-5-(2-vinylquinolin-4-yl)nicotinonitrile], the IC50 on IDH1 R132H (setting [1]) and in the experiment on HT1080 cells was < 500 nM throughout.

In the case of `Cn1cc(-c2cc(C#N)c(N3CCN(C(=O)CC(F)(F)F)[C@H](C4CC4)C3)nc2C2CC2)c2ccccc2c1=O` [Compound 536, (R)-6-cyclopropyl-2-(3-cyclopropyl-4-(3,3,3-trifluoropropanoyl)piperazin-1-yl)-5-(2-methyl-1-oxo-1,2-dihydroisoquinolin-4-yl)nicotinonitrile], the concentration for half-maximal inhibition (IC50) on IDH1 R132H (setting [1]) and with HT1080 cells was < 500 nM in each case.

Regarding `C=CC(=O)N1CCC=C(c2c(C3CC3)nc(N3CCN(C(=O)CCOC)[C@H](C)C3)c(C#N)c2C)C1` [Compound 680, (R)-5-(1-acryloyl-1,2,5,6-tetrahydropyridin-3-yl)-6-cyclopropyl-2-(4-(3-methoxypropanoyl)-3-methylpiperazin-1-yl)-4-methylnicotinonitrile], the IC50 at IDH1 R132H (setting [1]) and in the experiment with HT1080 cells was < 500 nM in each case.

In the case of `C=Cc1ccc2c(-c3cc(C#N)c(N4CCN(C(=O)CCO)[C@H](C5CC5)C4)nc3C3CC3)cccc2n1` [Compound 569, (R)-6-cyclopropyl-2-(3-cyclopropyl-4-(3-hydroxypropanoyl)piperazin-1-yl)-5-(2-vinylquinolin-5-yl)nicotinonitrile], the IC50 on IDH1 R132H (setting [1]) and with HT1080 cells was < 500 nM in each case.

On to `C=C(C)c1cc(-c2cc(C#N)c(N3CCN(C(=O)C4CC4)[C@H](C4CC4)C3)nc2C2CC2)ccn1` [Compound 544, (R)-6-(4-(cyclopropanecarbonyl)-3-cyclopropylpiperazin-1-yl)-2-cyclopropyl-2′-(prop-1-en-2-yl)-3,4′-bipyridine-5-carbonitrile], for which the IC50 was < 500 nM at IDH1 R132H (setting [1]) and 500 to 1000 nM with HT1080 cells.

For the compound `CCS(=O)(=O)N1CCN(c2cc(C#N)c(N3CCN(C(=O)C4CC4)[C@H](C4CC4)C3)nc2C2CC2)CC1` [Compound 529, (R)-2-(4-(cyclopropanecarbonyl)-3-cyclopropylpiperazin-1-yl)-6-cyclopropyl-5-(4-(ethylsulfonyl)piperazin-1-yl)nicotinonitrile], the IC50 was < 500 nM on IDH1 R132H (setting [1]) and 500 to 1000 nM in the experiment on HT1080 cells.

Regarding `C=CC(=O)N(c1cc(C#N)c(N2CCN(C(=O)CCOC)[C@H](C)C2)nc1C1CC1)c1ccnc2ccccc12` [Compound 712, (R)—N-(5-cyano-2-cyclopropyl-6-(4-(3-methoxypropanoyl)-3-methylpiperazin-1-yl)pyridin-3-yl)-N-(quinolin-4-yl)acryl amide], the IC50 at IDH1 R132H (setting [1]) is < 500 nM; with HT1080 cells it was 1000 to 10000 nM.

With `N#Cc1cc(-c2cccc3c(C#N)nccc23)c(C2CC2)nc1N1CCN(C(=O)C2CC2)[C@H](C2CC2)C1` [Compound 511, (R)-5-(5-cyano-6-(4-(cyclopropanecarbonyl)-3-cyclopropylpiperazin-1-yl)-2-cyclopropylpyridin-3-yl)isoquinoline-1-carbonitrile], the half-inhibitory concentration (IC50) at IDH1 R132H (setting [1]) is < 500 nM; with HT1080 cells it was 500 to 1000 nM.

On to `N#Cc1cc(-c2cnnc(O)c2)c(C2CC2)nc1N1CCN(C(=O)CCO)[C@H](C2CC2)C1` [Compound 671, (R)-6-cyclopropyl-2-(3-cyclopropyl-4-(3-hydroxypropanoyl)piperazin-1-yl)-5-(6-hydroxypyridazin-4-yl)nicotinonitrile], for which, at IDH1 R132H (setting [1]), the half-inhibitory concentration (IC50) is < 500 nM.

As for `COCCC(=O)N1CCN(c2nc(C(C)C)c(-c3ccc(OC(F)(F)F)cc3)cc2C#N)C[C@H]1C` [Compound 232, (R)-6-isopropyl-2-(4-(3-methoxypropanoyl)-3-methylpiperazin-1-yl)-5-(4-(trifluoromethoxy)phenyl)nicotinonitrile], the half-maximal inhibitory concentration (IC50) at IDH1 R132H (Table 3, enzyme assay, 50 minutes at room temperature, read-out: IC50 (IDH1 R132H Inhibition)) lay in the range of 1000 to 5000 nM.

Consider `CN(C)c1nccc(-c2cc(C#N)c(N3CCN(C(=O)C4CC4)[C@H](C4CC4)C3)nc2C2CC2)n1` [Compound 506, (R)-2-(4-(cyclopropanecarbonyl)-3-cyclopropylpiperazin-1-yl)-6-cyclopropyl-5-(2-(dimethylamino)pyrimidin-4-yl)nicotinonitrile], for which the 50% inhibitory concentration (IC50) at IDH1 R132H (setting [1]) lay within 500 to 1000 nM.

On to `C=Cc1cc(-c2c(C3CC3)nc(N3CCN(C(=O)OC(C)(C)C)[C@H](C4CC4)C3)c(C#N)c2C)cnn1` [Compound 772, (R)-tert-butyl 4-(3-cyano-6-cyclopropyl-4-methyl-5-(6-vinylpyridazin-4-yl)pyridin-2-yl)-2-cyclopropylpiperazine-1-carboxylate], for which the IC50 at IDH1 R132H (setting [1]) was 500 to 1000 nM.
